Assay results as given in patent US9126945B2, “N-(3-carbamoylphenly)-1H-pyrazole-5-carboxamide derivatives and the use thereof for controlling animal pests” (BAYER INTELLECTUAL PROPERTY GMBH, priority 2011, dated 2015).

Experiments:
[1] = test system: Boophilus microplus females of the SP-resistant Parkhurst strain; test: Boophilus microplus test (DIP); format: in vivo; conditions: for inhibition at 20 ppm: Rhipicephalus microplus, 168 h, BOOPMI DIP, 7 dat
Protocol: Boophilus microplus Test (DIP)
Test animals: adult engorged Boophilus microplus females of the SP-resistant Parkhurst strain
(§1) Solvent: dimethyl sulphoxide
10 mg of active compound are dissolved in 0.5 ml of dimethyl sulphoxide. For the purpose of preparing a suitable formulation, the active compound solution is diluted with water to the concentration desired in each case.
This active compound preparation is pipetted into tubes. 8-10 ticks are transferred into a further tube with holes. The tube is immersed into the active compound formulation, and all ticks are completely wetted. After the liquid has rum off, the ticks are transferred to filter discs in plastic dishes and kept in a climatized room. The activity is assessed after 7 days by laying of fertile eggs. Eggs whose fertility is not outwardly visible are stored in glass tubes in a climate-controlled cabinet until the larvae hatch. An efficacy of 100% means that none of the ticks has laid any fertile eggs.
10 mg of active compound are dissolved in 0.5 ml of dimethyl sulphoxide. For the purpose of preparing a suitable formulation, the active compound solution is diluted with water to the concentration desired in each case (in ppm).
This active compound preparation is pipetted into tubes. 8-10 ticks are transferred into a further tube with holes. The tube is immersed into the active compound formulation, and all ticks are completely wetted. After the liquid has run out, the ticks are transferred onto filter discs in plastic dishes and stored in a climate-controlled room.
The activity is assessed after the desired time by laying of fertile eggs. Eggs whose fertility is not evident from the outside are kept in glass tubes in a climate-controlled cabinet until the larvae have hatched. An effect of 100% means that none of the ticks has laid any fertile eggs.

Lucilia cuprina larvae = test: Lucilia cuprina test (LUCICU); format: in vivo; conditions: 100 ppm; after 2 days
Protocol: Lucilia cuprina Test (LUCICU)
as §1
Vessels containing horse meat treated with the active compound preparation of the desired concentration are populated with about 20 Lucilia cuprina larvae.
(§2) After 2 days, the kill in % is determined.

[2] = log P by HPLC, EEC Directive 79/831 Annex V.A8, method a); format: physicochemical; conditions: reversed-phase C18 HPLC column; cell marked a): HPLC, reversed-phase C18, acetonitrile/water with formic acid, gradient 10% to 95% acetonitrile
Outline: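 Reversed-phase C18 HPLC (50*4.6, 1.8 micron) per EEC Directive 79/831 Annex V.A8, acetonitrile/water with formic acid, gradient 10% to 95% acetonitrile over 4.25 min then 1.25 min hold; 55° C, 2.0 ml/min, with MS detection.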

Boophilus microplus = Boophilus microplus test (BOOPMI injection); format: in vivo; conditions: for % Activity dat: BOOPMI injection, 7 dat
Protocol: Boophilus microplus Test (BOOPMI Injection)
as §1
The active compound solution is injected into the abdomen (Boophilus microplus), and the animals are transferred into dishes and stored in a climate-controlled room. The activity is assessed by laying of fertile eggs.
The active compound solution is injected into the abdomen (Boophilus microplus), and the animals are transferred into dishes and stored in a climate-controlled room.
The activity is assessed by laying of fertile eggs. 100% means that none of the ticks has laid any fertile eggs.

Spodoptera frugiperda [3] = test: Spodoptera frugiperda spray test (SPODFR), cotton leaves, ppm; format: in vivo; conditions: 168 h, 7 dat
Text: Spodoptera frugiperda Spray Test (SPODFR)
(§3) Solvent: 7 parts by weight of dimethylformamide
(§4) Emulsifier: 2 parts by weight of alkylaryl polyglycol ether
(§5) If the addition of ammonium salts or/and penetrants is required, these are in each case added in a concentration of 1000 ppm to the solution of the preparation.
Cotton leaves (Gossypium hirsutum) are sprayed with an active compound formulation of the desired concentration and populated with caterpillars of the armyworm (Spodoptera frugiperda).

Spodoptera frugiperda [4] = test: Spodoptera frugiperda test (SPODFR spray treatment), maize leaf discs; format: in vivo; conditions: application rate 500 g/ha; after 7 days
Text: Spodoptera frugiperda Test (SPODFR Spray Treatment)

Ctenocephalides felis = Ctenocephalides felis oral (CTECFE); format: in vivo
Protocol: Ctenocephalides felis Oral (CTECFE)
Solvent: 1 part by weight of dimethyl sulphoxide
For the purpose of producing a suitable preparation of active compound, 10 mg of active compound are mixed with 0.5 ml of dimethyl sulphoxide. A portion of the concentrate is diluted with citrated cattle blood, and the desired concentration is prepared.
(§6) About 20 unfed adult fleas (Ctenocephalides felis) are placed into a chamber which is closed at the top and bottom with gauze. A metal cylinder whose bottom end is closed with parafilm is placed onto the chamber. The cylinder contains the blood/active compound preparation, which can be taken up by the fleas through the parafilm membrane. After 2 days, the kill in % is determined.
For the purpose of preparing an appropriate active compound formulation, 10 mg of active compound are mixed with 0.5 ml of dimethyl sulphoxide. A portion of the concentrate is diluted with citrated cattle blood, and the desired concentration is prepared.
as §6, with “membrane.” for “membrane. After 2 days, the kill in % is determined.”

Tetranychus urticae [5] = test: Tetranychus test, OP-resistant (TETRUR spray treatment), bean leaf discs; format: in vivo; conditions: application rate 500 g/ha; after 6 days
Protocol: Tetranychus Test, OP-Resistant (TETRUR Spray Treatment)
After a time of 6 days, the efficacy in % is determined.

Plutella xylostella = Plutella xylostella spray test (PLUTMA); format: in vivo; conditions: 168 h, 7 dat
Text: Plutella xylostella Spray Test (PLUTMA)
as §3, §4, §5

Musca domestica = Musca domestica test (MUSCDO); format: in vivo
Protocol: Musca domestica Test (MUSCDO)
as §1
Vessels containing a sponge treated with the active compound preparation of the desired concentration are populated with adult Musca domestica.
as §2
Vessels containing a sponge treated with the active compound formulation of the desired concentration are populated with adult Musca domestica.
After the desired period of time, the kill in % is determined.

Phaedon cochleariae [6] = test: Phaedon test (PHAECO spray treatment), Chinese cabbage leaf discs
Phaedon cochleariae [7] = test: Phaedon cochleariae spray test (PHAECO), cabbage leaves, ppm; format: in vivo; conditions: 168 h, 7 dat
Text: Phaedon cochleariae Spray Test (PHAECO)
as §3, §4, §5

Myzus persicae = test: Myzus test (MYZUPE spray treatment); format: in vivo
Protocol: Myzus test (Myzupe spray treatment)
After 6 days, the efficacy in % is determined.
Myzus Test (MYZUPE Spray Treatment)

Tetranychus urticae [8] = test: Tetranychus urticae spray test, OP-resistant (TETRUR), bean plants, ppm; format: in vivo; conditions: 168 h, 7 dat
Text: Tetranychus urticae Spray Test, OP-Resistant (TETRUR)
as §3, §4, §5

[9] = test system: Frankliniella occidentalis; test: Frankliniella occidentalis spray test (FRANOC); format: in vivo; conditions: 168 h, 500 g/ha, 7 dat
Text: Frankliniella occidentalis Spray Test (FRANOC)
as §5

Nilaparvata lugens = Nilaparvata lugens spray test (NILALU); format: in vivo; conditions: 168 h, 7 dat
Text: Nilaparvata lugens Spray Test (NILALU)
as §5

Heliothis armigera = Heliothis armigera spray test (HELIAR); format: in vivo; conditions: Helicoverpa armigera, 168 h, 7 dat
Text: Heliothis armigera Spray Test (HELIAR)
as §3, §4, §5

Liriomyza trifolii = Liriomyza trifolii spray test (LIRITR); format: in vivo; conditions: 168 h, 7 dat
Text: Liriomyza trifolii Spray Test (LIRITR)
as §5

[10] = Ctenocephalides felis, po, 48 h, CTECFE, 2 dat
[11] = Myzus persicae, 144 h, MYZUPE, 6 dat

For `CN(C(=O)c1c(C(F)(F)F)c(C(F)(F)C(F)(F)F)nn1C)c1ccc(Cl)c(C(=O)NC2(C#N)CC2)c1` [Example 8], the “efficacy in % (laying of fertile eggs)” value ([1]; 100 ppm, after 7 days) was 100%, the inhibition at 20 ppm [1] was 100% and the “kill in % (efficacy)” value (Lucilia cuprina larvae) was 100%. The chromatographic logP [2] was 3.21, the “efficacy in % (laying of fertile eggs)” value (Boophilus microplus; 20 μg/animal, after 7 days) was 100% and the “% Activity dat” value (Boophilus microplus; 0.032 μg/animal) was 100%. The inhibition at 20 ppm (Spodoptera frugiperda [3]) was 100%, the efficacy in % (Spodoptera frugiperda [4]) was 100% and the “kill in % (effect)” value (Ctenocephalides felis; 100 ppm, after 2 days) was 100%. It also gave an inhibition at 0.8 ppm (Ctenocephalides felis; [10]) of 90%, an efficacy in % (Tetranychus urticae [5]) of 100% and an inhibition at 20 ppm (Plutella xylostella) of 100%. The “kill in % (efficacy)” value (Musca domestica; 100 ppm, after 2 days) was 100%, the efficacy in % (Phaedon cochleariae [6]; application rate 500 g/ha, after 7 days) was 100% and the inhibition at 0.8 ppm (Phaedon cochleariae [7]) was 100%. For the same molecule, the inhibition at 100 g/ha (Myzus persicae; [11]) was 100%, the efficacy in % (Myzus persicae; application rate 500 g/ha, after 6 days) was 100% and the inhibition at 4 ppm (Tetranychus urticae [8]) was 95%.

With `Cn1nc(C(F)(F)C(F)(F)F)c(C(F)(F)F)c1C(=O)Nc1ccc(Cl)c(C(=O)NC2CC2c2ccccc2)c1` (stereo not shown) [Ik-47] the inhibition at 500 g/ha [9] was 0%, the “% Activity dat” value (Boophilus microplus; 0.8 μg/animal) was 50% and the inhibition at 20 ppm (Spodoptera frugiperda [3]) was 0%. It also gave an inhibition at 500 g/ha (Nilaparvata lugens) of 0%, an inhibition at 20 ppm (Ctenocephalides felis; Ctenocephalides felis, po, 48 h, CTECFE, 20 ppm, 2 dat) of 50% and an inhibition at 20 ppm (Plutella xylostella) of 0%. The inhibition at 100 ppm (Musca domestica; Musca domestica, 48 h, MUSCDO, 2 dat) was 0%, the inhibition at 20 g/ha (Phaedon cochleariae [6]; Phaedon cochleariae, in Brassica rapa, foliar, 168 h, read-out: % Activity dat) was 0% and the inhibition at 20 ppm (Heliothis armigera; 20 ppm) was 0%. It also gave an inhibition at 500 g/ha (Myzus persicae; Myzus persicae, 144 h, MYZUPE, 500 g/ha, 6 dat) of 0% and an inhibition at 20 ppm (Tetranychus urticae [8]; 20 ppm) of 30%.

With `CN(C(=O)c1c(C(F)(F)F)c(C(F)(F)C(F)(F)F)nn1C)c1ccc(Cl)c(C(=O)NC2CC2)c1` [Ik-132, reference compound] the inhibition at 20 ppm [1] was 30%, the “% Activity dat” value (Boophilus microplus; 0.032 μg/animal) was 0% and the inhibition at 20 ppm (Spodoptera frugiperda [3]) was 50%. The inhibition at 0.8 ppm (Ctenocephalides felis; [10]) was 30%, the inhibition at 20 ppm (Plutella xylostella) was 5% and the inhibition at 0.8 ppm (Phaedon cochleariae [7]) was 5%. For the same molecule, the inhibition at 100 g/ha (Myzus persicae; [11]) was 0% and the inhibition at 4 ppm (Tetranychus urticae [8]) was 30%.

For `C[C@@H]1C[C@H]1NC(=O)c1cc(NC(=O)c2c(C(F)(F)F)c(C(F)(F)C(F)(F)F)nn2C)ccc1Cl` [Ik-280], the inhibition at 20 ppm (Spodoptera frugiperda [3]) was 40%, the inhibition at 100 g/ha (Nilaparvata lugens; 100 g/ha) was 0% and the inhibition at 20 ppm (Plutella xylostella) was 65%. For the same molecule, the inhibition at 100 ppm (Heliothis armigera; 100 ppm) was 0% and the inhibition at 4 ppm (Phaedon cochleariae [7]; 4 ppm) was 0%.

Molecule `Cn1nc(C(F)(F)C(F)(F)F)c(C(F)(F)F)c1C(=O)Nc1ccc(Cl)c(C(=O)NC2(C(F)(F)F)CC2)c1` [Ik-296, reference compound] has an inhibition at 500 g/ha [9] of 60%, an inhibition at 500 g/ha (Nilaparvata lugens) of 0% and an inhibition at 500 g/ha (Liriomyza trifolii) of 0%. For the same molecule, the inhibition at 100 g/ha (Myzus persicae; [11]) was 0%.
